# From patent publication US20250154611A1, “SYSTEMS AND METHODS TO DETECT STEM CELL STRESS AND USES THEREOF” (Wayne State University, priority 2014, published 2025)
# Several values for one entry are separate records, joined by “and”; a condition that tells them apart may be missing. Equal values may be shown once.
# Columns and labels:
# Rex1-RFP ESCs = assay: Cell counts and doubling rate of Rex1-RFP ESCs at time zero and 3 days of sorbitol; type: cell-based, mouse; details: 72 hr; for Doubling Rate: 0 mM 32.7 hr; for Relative Cell# (Total #, OUTSIDE BOX): time zero = 100, 0 mM = 460
# From the text: FIG. 28. Partial validation of the Theory of Compensatory Differentiation whereby stress decreases in size the normal levels of stem cell expansion and, in the nonmorbid stress range where doubling rates were near-normal, the diminished potency group that is enabled to differentiate is constant in size. […] A modified Venn diagram from previous modeling is presented here and analyzed with respect to supporting flow cytometry data for changes in potency subpopulation sizes derived from Table 8 and discussed in the text. For convenience, Table 8 is reproduced here:
# Finally it was tested whether endogenous Rex1 protein levels decreased commensurately with decreases in Rex1-RFP activity levels assayed in FIG. 24. Rex1-RFP ESCs were cultured for 3 days with 0-300 mM sorbitol and assayed by immunoblot for endogenous Rex1 levels normalized to ACTB loading controls and with time zero unstressed Rex1 set to 100 as a baseline level. Whereas stress-induced decrease in Rex1 activity in FIG. 24 were 20% and 70% at 200 mM and 300 mM sorbitol, respectively endogenous Rex1 protein losses were 30% and 70% at 200 mM and 300 mM, respectively (FIG. 27). Through the series from 200 mM to 300 mM sorbitol there was generally good agreement between activity level and endogenous protein level for Rex1 at 3 days of stress and with Rex1 protein loss at 1 day (Example 2). To correlate stress-induced Rex1 potency loss with stress-induced diminished cell growth rates, cell counts were performed at time zero and at 3 days over the same sorbitol dose range as in FIG. 27 and FIG. 24 and FIGS. 26A & 26B. […]; see Brief Description of the Figures for Table 8).
# The stress dose-dependent cell number of low potency cells can be determined by multiplying the fractional subpopulation size of cells with potency loss, which increases with stress and the decreasing cell numbers with increasing stress. This was done in Table 8 and compared with a previously published Venn diagram for compensatory differentiation (Puscheck, 2015, MB; Rappolee, 2013), modified to produce FIG. 28. In the stress-dose range where population size decreases, but increasing doubling rate is in a manageable range, the absolute size of the subpopulation of potency loss (intermediate and very low dim cells) is remarkably the same. At stress doses where very large doubling rate increases occur the subpopulation number with potency loss decreases, probably due to stem cell morbidity at these higher hyperosmotic stress levels (Example 2). Thus all three lines of evidence summarized here are consistent with the theory, but with limitations.
# SAPK = details: 100 mM, 20% O2, despite FGF4; cited from earlier work
# AKT = biological target: T1, AKT (Mus musculus, UniProt P31750); assay: phospho-AKT western blot in mESCs under 200 mM sorbitol; type: cell-based; details: 200 mM; persisted through 1 hr
# T1 construct: endogenous in cells; host or cells: mESC-D3 (ATCC)
# T1 sequence (P31750 whole entry): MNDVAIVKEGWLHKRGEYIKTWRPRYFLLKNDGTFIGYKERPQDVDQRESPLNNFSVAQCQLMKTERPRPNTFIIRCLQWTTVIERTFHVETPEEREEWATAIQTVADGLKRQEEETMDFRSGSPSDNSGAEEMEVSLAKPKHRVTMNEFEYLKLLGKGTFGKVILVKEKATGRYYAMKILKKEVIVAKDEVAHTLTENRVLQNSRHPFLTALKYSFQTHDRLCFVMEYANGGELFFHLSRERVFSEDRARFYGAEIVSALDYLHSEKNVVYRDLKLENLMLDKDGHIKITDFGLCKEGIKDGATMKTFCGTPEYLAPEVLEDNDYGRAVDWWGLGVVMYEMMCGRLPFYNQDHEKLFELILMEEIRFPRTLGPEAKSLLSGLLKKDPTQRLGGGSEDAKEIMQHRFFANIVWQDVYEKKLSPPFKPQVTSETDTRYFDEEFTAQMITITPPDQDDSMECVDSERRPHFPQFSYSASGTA
# Description: (§1) FIG. 14. […] Blots are representative of triplicate experiments. Phospho-proteins and their loading controls are grouped between black lines.
# (§2) FIG. 15. […] Blots are representative of triplicate experiments.
# (§3) Hyperosmotic activation of signaling enzymes. […] Zhong, 2010; Xie, 2011. […] To determine the kinetics of activation of these five kinases in the described system, mESCs were treated with 200 mM sorbitol for 1 hr. Expression levels of the activated (i.e., phosphorylated) enzymes were assayed by western blot analysis (FIG. 14), including phospho-p38MAPK, phospho-JNK, phospho-MEK1/2, and phospho-AKT (the downstream effector of PI3K signaling).
# (§4) Efficacy of enzyme inhibitors.
# Rex1 = assay: Immunoblot of endogenous Rex1 protein in Rex1-RFP ESCs; type: cell-based, mouse; details: 3 days
# Description: FIG. 27. Rex1 promoter RFP have a stress dose-dependent loss of endogenous Rex1 protein corresponding to dose-dependent loss of Rex1 activity shown in FIG. 24. (A) Rex1-RFP mESCs expressing cultured until 30% confluent, treated with 0 mM, 200-300 mM sorbitol in 25 mM increments for 3 days (as in FIG. 24), lysed, size fractionated by SDS-PAGE, blotted, probed for Rex1 and ACTB proteins and analyzed for changes compared to time zero and for stress dose responses. The histogram bars are derived from three independent experiments, one of which is shown in the top panel of FIG. 27, shown are X+/−s.e.m., n=3, (a) is P<0.01 and (b) indicates not significant. FIG. 27, bottom panel.
# Immunoblot. After treatment, the ESCs were rinsed with PBS, lysed with RIPA buffer supplemented with protease inhibitors and sonicated briefly. Total protein concentration was determined using Pierce BCA protein assay reagent admixed with Laemmli sample buffer, and boiled for 5 min. Equal total protein amounts from the lysates were size-fractionated by 5-20% gradient SDS-PAGE and transferred onto nitrocellulose membrane. Rex1 […] signals were detected using ECL reagent with X-ray films and quantified using ImageJ 1.48v software (NIH, USA).
# Finally it was tested whether endogenous Rex1 protein levels decreased commensurately with decreases in Rex1-RFP activity levels assayed in FIG. 24. Rex1-RFP ESCs were cultured for 3 days with 0-300 mM sorbitol and assayed by immunoblot for endogenous Rex1 levels normalized to ACTB loading controls and with time zero unstressed Rex1 set to 100 as a baseline level. Whereas stress-induced decrease in Rex1 activity in FIG. 24 were 20% and 70% at 200 mM and 300 mM sorbitol, respectively endogenous Rex1 protein losses were 30% and 70% at 200 mM and 300 mM, respectively (FIG. 27). Through the series from 200 mM to 300 mM sorbitol there was generally good agreement between activity level and endogenous protein level for Rex1 at 3 days of stress and with Rex1 protein loss at 1 day (Example 2). […]
# JNK = assay: phospho-JNK western blot in mESCs under 200 mM sorbitol; type: cell-based, mouse; details: persisted throughout 1 hr
# Description: as §1, §2, §3, §4
smiles,measurement,setting,value
OC[C@@H](O)[C@@H](O)[C@H](O)[C@@H](O)CO [sorbitol],% Dim + Intermediate × Cell# (INSIDE BOX cell number),Rex1-RFP ESCs; 200 mM,9893
same,Doubling Rate,Rex1-RFP ESCs; 200 mM,34.1 h
same,"Relative Cell# (Total #, OUTSIDE BOX)",Rex1-RFP ESCs; 200 mM,432
same,% Dim + Intermediate × Cell# (INSIDE BOX cell number),Rex1-RFP ESCs; 225 mM,9930
same,Doubling Rate,Rex1-RFP ESCs; 225 mM,35.6 h
same,"Relative Cell# (Total #, OUTSIDE BOX)",Rex1-RFP ESCs; 225 mM,407
same,% Dim + Intermediate × Cell# (INSIDE BOX cell number),Rex1-RFP ESCs; 250 mM,9968
same,Doubling Rate,Rex1-RFP ESCs; 250 mM,39.3 h
same,"Relative Cell# (Total #, OUTSIDE BOX)",Rex1-RFP ESCs; 250 mM,356
same,% Dim + Intermediate × Cell# (INSIDE BOX cell number),Rex1-RFP ESCs; 275 mM,7418
same,Doubling Rate,Rex1-RFP ESCs; 275 mM,51.4 h
same,% Dim + Intermediate × Cell# (INSIDE BOX cell number),Rex1-RFP ESCs; 300 mM,4540
same,Doubling Rate,Rex1-RFP ESCs; 300 mM,103.4 h
same,"Relative Cell# (Total #, OUTSIDE BOX)",Rex1-RFP ESCs; 300 mM,161 and 162
same,cell doubling rates,Rex1-RFP ESCs; 200-250 mM range,34.1 to 39.3 h
same,cell doubling rates,Rex1-RFP ESCs; 275-300 mM,51.4 to 103.4 h
same,SAPK increase,SAPK,5 fold
same,time of increased AKT activation,AKT,20 to 30 min
same,endogenous Rex1 protein loss,Rex1; 200 mM,30%
same,endogenous Rex1 protein loss,Rex1; 300 mM,70%
same,endogenous Rex1 protein,"Rex1; 225-300 mM, not at 200 mM",significantly lower
same,time at which activated JNK was first detected,JNK,20 min
